Assay results taken from publication PMC8397297 (ACS Chemical Neuroscience, 2021).

Legend:
[1] = molecular target: T1, mGAT4 (Mus musculus, UniProt P31650); test: [3H]GABA uptake assay in HEK-293 cells stably expressing mGAT4; type: cell-based; settings: for IC50: [3H]GABA uptake, read-out: pIC50 ± SEM mGAT4 (converted)
T1 construct: expressed in transfected cells; host or cells: HEK-293
T1 sequence (P31650 1-627): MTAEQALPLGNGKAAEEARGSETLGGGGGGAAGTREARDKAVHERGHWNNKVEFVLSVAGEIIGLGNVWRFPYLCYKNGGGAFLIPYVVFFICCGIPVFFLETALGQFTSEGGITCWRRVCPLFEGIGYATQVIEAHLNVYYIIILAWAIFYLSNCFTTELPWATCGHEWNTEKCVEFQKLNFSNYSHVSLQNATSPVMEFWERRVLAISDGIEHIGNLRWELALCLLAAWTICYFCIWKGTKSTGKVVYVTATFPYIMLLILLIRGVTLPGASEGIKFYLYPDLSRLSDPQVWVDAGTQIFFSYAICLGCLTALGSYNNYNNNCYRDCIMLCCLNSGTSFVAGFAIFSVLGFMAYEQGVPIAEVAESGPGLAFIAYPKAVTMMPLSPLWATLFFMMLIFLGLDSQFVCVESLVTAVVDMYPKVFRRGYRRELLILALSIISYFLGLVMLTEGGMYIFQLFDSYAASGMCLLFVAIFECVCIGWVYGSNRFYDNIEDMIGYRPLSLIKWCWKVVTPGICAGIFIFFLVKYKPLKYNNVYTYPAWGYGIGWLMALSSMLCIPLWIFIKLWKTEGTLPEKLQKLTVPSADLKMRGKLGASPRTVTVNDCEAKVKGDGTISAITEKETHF

[2] = molecular target: T2, mGAT1 (Mus musculus, UniProt P31648); test: [3H]GABA uptake assay in HEK-293 cells stably expressing mGAT1; type: cell-based; settings: for IC50: [3H]GABA uptake, read-out: pIC50 ± SEM mGAT1 (converted); for remaining [3H]GABA uptake mGAT1: in the presence of 100 μM inhibitor
T2 construct: expressed in transfected cells; host or cells: HEK-293

[3] = molecular target: T3, mGAT3 (Mus musculus, UniProt P31649); test: [3H]GABA uptake assay in HEK-293 cells stably expressing mGAT3; type: cell-based; settings: for IC50: [3H]GABA uptake, read-out: pIC50 ± SEM mGAT3 (converted)
T3 construct: expressed in transfected cells; host or cells: HEK-293
T3 sequence (P31649 1-602): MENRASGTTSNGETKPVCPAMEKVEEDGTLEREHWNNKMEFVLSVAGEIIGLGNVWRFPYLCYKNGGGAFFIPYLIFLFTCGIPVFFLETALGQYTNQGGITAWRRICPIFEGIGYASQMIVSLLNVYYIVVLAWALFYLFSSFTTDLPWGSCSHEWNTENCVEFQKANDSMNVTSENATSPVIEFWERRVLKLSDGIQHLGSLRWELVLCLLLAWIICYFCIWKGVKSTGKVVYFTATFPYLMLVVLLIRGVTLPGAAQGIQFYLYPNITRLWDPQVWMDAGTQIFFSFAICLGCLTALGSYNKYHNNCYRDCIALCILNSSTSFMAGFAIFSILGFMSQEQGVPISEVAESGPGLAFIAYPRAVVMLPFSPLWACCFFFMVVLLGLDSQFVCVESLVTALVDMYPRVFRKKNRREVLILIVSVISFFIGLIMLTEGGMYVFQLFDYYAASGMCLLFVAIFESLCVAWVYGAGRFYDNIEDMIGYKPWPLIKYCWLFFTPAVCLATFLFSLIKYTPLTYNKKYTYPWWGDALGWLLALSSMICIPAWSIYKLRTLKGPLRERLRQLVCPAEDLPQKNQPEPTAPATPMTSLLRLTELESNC

[4] = molecular target: T2, mGAT1; test: competitive MS binding assay with NO711 as unlabeled marker (LC-ESI-MS/MS); settings: for remaining NO711 binding mGAT1: in the presence of 100 μM inhibitor
Method: Specific binding affinity toward mGAT1 was determined via a competitive mass spectrometry (MS) binding assay quantified by liquid chromatography–electrospray ionization tandem mass spectrometry (LC–ESI-MS/MS) with NO711 as an unlabeled marker.[50]
MS binding assays for mGAT1 were performed as described earlier.[50] Inhibition of mGAT1 binding by the synthesized compounds was determined in MS binding assays at a screening concentration of 100 μM and analyzed by LC–ESI-MS/MS.

[5] = molecular target: T4, mGAT2 (Mus musculus, UniProt P31651); test: [3H]GABA uptake assay in HEK-293 cells stably expressing mGAT2; type: cell-based; settings: for IC50: [3H]GABA uptake, read-out: pIC50 ± SEM mGAT2 (converted)
T4 construct: expressed in transfected cells; host or cells: HEK-293
T4 sequence (P31651 1-614): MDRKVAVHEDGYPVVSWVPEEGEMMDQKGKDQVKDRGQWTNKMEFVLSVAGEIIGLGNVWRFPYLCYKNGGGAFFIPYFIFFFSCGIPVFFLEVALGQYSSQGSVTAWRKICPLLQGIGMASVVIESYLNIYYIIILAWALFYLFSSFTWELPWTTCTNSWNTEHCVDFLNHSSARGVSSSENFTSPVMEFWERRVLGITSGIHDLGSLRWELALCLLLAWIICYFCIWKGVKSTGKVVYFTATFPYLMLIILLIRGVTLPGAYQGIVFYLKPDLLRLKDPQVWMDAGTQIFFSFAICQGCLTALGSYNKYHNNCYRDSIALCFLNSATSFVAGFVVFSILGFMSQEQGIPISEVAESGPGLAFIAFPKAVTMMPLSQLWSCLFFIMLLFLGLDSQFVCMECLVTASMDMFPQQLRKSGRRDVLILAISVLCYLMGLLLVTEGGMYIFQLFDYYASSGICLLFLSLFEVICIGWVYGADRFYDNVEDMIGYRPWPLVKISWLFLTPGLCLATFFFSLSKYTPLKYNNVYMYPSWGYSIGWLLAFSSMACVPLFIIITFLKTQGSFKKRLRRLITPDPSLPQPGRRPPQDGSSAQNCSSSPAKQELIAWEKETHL

[6] = in the presence of 100 μM inhibitor

Row | Structure (SMILES) | IC50 [1] [µM] | IC50 [2] [µM] | IC50 [3] [µM] | remaining NO711 binding mGAT1 [4] | IC50 [5] [µM] | remaining [3H]GABA uptake mGAT4 [1, 6] | remaining [3H]GABA uptake mGAT1 [2] | remaining [3H]GABA uptake mGAT3 [3, 6] | remaining [3H]GABA uptake mGAT2 [5, 6] | Ki ([4]; MS binding assay, read-out: pKi ± SEM mGAT1 (converted)) [µM]
1 | CC(O)CC(C(=O)NCc1ccccc1)N1CCC(=C2c3ccccc3CCc3ccccc32)CC1 (centres unmarked) [2RS,4SR-43a, N-Benzyl-2-(4-(10,11-dihydro-5H-dibenzo[a,d][7]annulen-5-ylidene)piperidin-1-yl)-4-hydroxypentanamide] | 15.8 | 19.5 | 28.2 | 100 μM: 73% | 58.9 | – | – | – | – | –
2 | CC(O)CC(C(=O)NCc1ccc(F)cc1)N1CCC(=C2c3ccccc3CCc3ccccc32)CC1 (centres unmarked) [2RS,4SR-43b, 2-(4-(10,11-Dihydro-5H-dibenzo[a,d][7]annulen-5-ylidene)piperidin-1-yl)-N-(4-fluorobenzyl)-4-hydroxypentanamide] | – | – | – | 100 μM: 102% | – | 100 μM: 62% | 100 μM: 54% | 100 μM: 87% | 100 μM: 80% | –
3 | CC(O)CC(C(=O)NCc1ccccc1)N(C)CCON=C(c1ccccc1)c1ccccc1 (centres unmarked) [2RS,4SR-45, N-Benzyl-2-[(2-{[(diphenylmethylidene)amino]oxy}ethyl)(methyl)amino]-4-hydroxypentanamide] | 39.8 | 57.5 | 18.2 | 100 μM: 86% | 31.6 | – | – | – | – | –
4 | CN(CCON=C(c1ccccc1)c1ccccc1)C(CCO)C(=O)NCc1ccccc1 (centres unmarked) [Compound 47a, N-Benzyl-2-[(2-{[(diphenylmethylidene)amino]oxy}ethyl)(methyl)amino]-4-hydroxybutanamide] | 14.8 | 16.6 | 18.2 | 100 μM: 87% | 36.3 | – | – | – | – | –
5 | CN(CCON=C(c1ccccc1)c1ccccc1)C(CCO)C(=O)NCc1ccccc1Cl (centres unmarked) [Compound 47b, N-[(2-Chlorophenyl)methyl]-2-[(2-{[(diphenylmethylidene)amino]oxy}ethyl)(methyl)amino]-4-hydroxybutanamide] | 18.6 | 31.6 | 9.12 | 100 μM: 86% | 13.8 | – | – | – | – | –
6 | CN(CCON=C(c1ccccc1)c1ccccc1)C(CCO)C(=O)NCc1ccc(Cl)c(Cl)c1 (centres unmarked) [Compound 47c, N-[(3,4-Dichlorophenyl)methyl]-2-[(2-{[(diphenylmethylidene)amino]oxy}ethyl)(methyl)amino]-4-hydroxybutanamide] | 7.08 | 21.9 | 11 | 100 μM: 82% | 10.2 | – | – | – | – | –
7 | CN(CCON=C(c1ccccc1)c1ccccc1)C(CCN)C(=O)NCc1ccc(Cl)c(Cl)c1 (centres unmarked) [Compound 50b, 4-Amino-N-[(3,4-dichlorophenyl)methyl]-2-[(2-{[(diphenylmethylidene)amino]oxy}ethyl)(methyl)amino]butanamide] | 4.9 | 12.3 | 4.79 | – | 4.9 | – | – | – | – | 33.1
8 | CC(=O)NCCC(C(=O)NCc1ccccc1Cl)N(C)CCON=C(c1ccccc1)c1ccccc1 (centres unmarked) [Compound 51a, N-[(2-Chlorophenyl)methyl]-2-[(2-{[(diphenylmethylidene)amino]oxy}ethyl)(methyl)amino]-4-acetamidobutanamide] | 12.6 | 18.2 | 9.33 | 100 μM: 74% | 13.2 | – | – | – | – | –
9 | CC(=O)NCCC(C(=O)NCc1ccc(Cl)c(Cl)c1)N(C)CCON=C(c1ccccc1)c1ccccc1 (centres unmarked) [Compound 51b, N-[(3,4-Dichlorophenyl)methyl]-2-[(2-{[(diphenylmethylidene)amino]oxy}ethyl)(methyl)amino]-4-acetamidobutanamide] | 11.2 | 11.7 | 6.76 | 100 μM: 72% | 12 | – | – | – | – | –

More lines, now with the values ahead:

Row | IC50 [1] [µM] | IC50 [2] [µM] | IC50 [3] [µM] | remaining NO711 binding mGAT1 [4] | IC50 [5] [µM] | remaining [3H]GABA uptake mGAT4 [1, 6] | remaining [3H]GABA uptake mGAT1 [2] | remaining [3H]GABA uptake mGAT3 [3, 6] | remaining [3H]GABA uptake mGAT2 [5, 6] | Ki ([4]; MS binding assay, read-out: pKi ± SEM mGAT1 (converted)) [µM] | Structure (SMILES)
10 | 44.7 | 15.1 | 16.2 | 100 μM: 86% | 16.6 | – | – | – | – | – | Cc1ccsc1C(=C1CCN(C(CO)C(=O)NCc2ccccc2)CC1)c1sccc1C (centres unmarked) [Compound 54a, N-Benzyl-2-{4-[bis(3-methylthiophen-2-yl)methylidene]piperidin-1-yl}-3-hydroxypropanamide]
11 | 95.5 | – | 63.1 | 100 μM: 100% | 43.7 | – | 100 μM: 53% | – | – | – | Cc1ccsc1C(=C1CCN(C(CO)C(=O)NCc2ccccc2Cl)CC1)c1sccc1C (centres unmarked) [Compound 54b, 2-{4-[Bis(3-methylthiophen-2-yl)methylidene]piperidin-1-yl}-N-[(2-chlorophenyl)methyl]-3-hydroxypropanamide]
12 | 28.8 | 17 | 16.2 | 100 μM: 96% | 13.8 | – | – | – | – | – | Cc1ccsc1C(=C1CCN(C(CO)C(=O)NCc2ccc(F)cc2)CC1)c1sccc1C (centres unmarked) [Compound 54c, 2-{4-[Bis(3-methylthiophen-2-yl)methylidene]piperidin-1-yl}-N-[(4-fluorophenyl)methyl]-3-hydroxypropanamide]
13 | 8.32 | 17.4 | 15.8 | 100 μM: 83% | 26.3 | – | – | – | – | – | CN(CCC=C1c2ccccc2C=Cc2ccccc21)C(CO)C(=O)NCc1ccccc1 (centres unmarked) [Compound 55a, 2-((3-(5H-Dibenzo[a,d][7]annulen-5-ylidene)propyl)(methyl)amino)-N-benzyl-3-hydroxypropanamide]
14 | 9.55 | 25.7 | 10.7 | 100 μM: 65% | 15.8 | – | – | – | – | – | CN(CCC=C1c2ccccc2C=Cc2ccccc21)C(CO)C(=O)NCc1ccccc1Cl (centres unmarked) [Compound 55b, 2-((3-(5H-Dibenzo[a,d][7]annulen-5-ylidene)propyl)(methyl)amino)-N-(2-chlorobenzyl)-3-hydroxypropanamide]
15 | 16.6 | 28.8 | 15.1 | 100 μM: 49% | 60.3 | – | – | – | – | – | CN(CCC=C1c2ccccc2C=Cc2ccccc21)C(CO)C(=O)NCc1ccc(Cl)cc1 (centres unmarked) [Compound 55c, 2-((3-(5H-Dibenzo[a,d][7]annulen-5-ylidene)propyl)(methyl)amino)-N-(4-chlorobenzyl)-3-hydroxypropanamide]
16 | 17 | 26.3 | 10.5 | 100 μM: 90% | 20.4 | – | – | – | – | – | CN(CCC=C1c2ccccc2C=Cc2ccccc21)C(CO)C(=O)NCc1ccc(F)cc1 (centres unmarked) [Compound 55d]
